These results are taken from US20240368156A1, “2-AZABICYCLO[2.2.1]HEPTANE KRAS INHIBITORS” (INCYTE CORPORATION, priority 2023, published 2024).

Broadly, the IC50 is the point on the concentration scale where inhibition reaches its midpoint.

Molecules are shown by their SMILES.

One experiment addresses KRAS G12D (Homo sapiens, UniProt P01116, G12D). Nature of the experiment: GDP-GTP exchange assay (bodipy-GDP/GppNHp, SOS1), KRAS G12D. The experiment is classed as biochemical. As to conditions: 2.5 nM bodipy-loaded KRAS G12D, 4 h pre-incubation, 2 h reaction with GppNHp and SOS1; for certain compounds the most potent isomer is quoted; read-out: KRAS_G12D exchange assay IC50. The protocol: (§1) The inhibitor potency of the exemplified compounds was determined in a fluorescence based guanine nucleotide exchange assay, which measures the exchange of bodipy-GDP (fluorescently labeled GDP) for GppNHp (Non-hydrolyzable GTP analog) to generate the active state of KRAS in the presence of SOS1 (guanine nucleotide exchange factor). Inhibitors were serially diluted in DMSO and a volume of 0.1 μL was transferred to the wells of a black low volume 384-well plate. 5 µL/well volume of bodipy-loaded KRAS G12D diluted to 2.5 nM in assay buffer (25 mM Hepes pH 7.5, 50 mM NaCl, 10 mM MgCl2 and 0.01% Brij-35) was added to the plate and pre-incubated with inhibitor for 4 h at r.t. Appropriate controls (enzyme with no inhibitor or with a G12D inhibitor) were included on the plate. The exchange was initiated by the addition of a 5 μL/well volume containing 1 mM GppNHp and 300 nM SOS1 in assay buffer. The 10 μL/well reaction concentration of the bodipy-loaded KRAS G12D, GppNHp, and SOS1 were 2.5 nM, 500 μM, and 150 nM, respectively. The reaction plates were incubated at r.t. for 2 h, a time estimated for complete GDP-GTP exchange in the absence of inhibitor. For the KRAS G12V mutant, similar guanine nucleotide exchange assays were used with 2.5 nM as final concentration for the bodipy loaded KRAS proteins and 3 h incubation after adding GppNHp-SOS1 mixture. A cyclic peptide described to selectively bind G12D mutant (Sakamoto et al., BBRC 484.3 (2017), 605-611) or internal compounds with confirmed binding were used as positive controls in the assay plates. Fluorescence intensities were measured on a PheraStar plate reader instrument (BMG Labtech) with excitation at 485 nm and emission at 520 nm.
(§2) Either GraphPad prism or Genedata Screener SmartFit was used to analyze the data. The IC50 values were derived by fitting the data to a four parameter logistic equation producing a sigmoidal dose-response curve with a variable Hill coefficient.
(§3) The symbol “†” indicates IC50≤100 nM, “††” indicates IC50>100 nM but ≤1 μM; and “†††” indicates IC50 is >1 μM but ≤5 μM, “††††” indicates IC50 is >5 µM but ≤10 μM. “NA” indicates IC50 not available.

A further experiment concerns the target KRAS G12V (Homo sapiens, UniProt P01116, G12V). Put plainly: GDP-GTP exchange assay (bodipy-GDP/GppNHp, SOS1), KRAS G12V. The experiment is classed as biochemical. Particulars: 2.5 nM bodipy-loaded KRAS G12V, 3 h incubation after adding GppNHp-SOS1; for certain compounds the most potent isomer is quoted; read-out: KRAS_G12V exchange assay IC50. On the procedure:
as §1, §2, §3

Chain of KRAS G12D (P01116 1-188 isoform P01116-2 G12D): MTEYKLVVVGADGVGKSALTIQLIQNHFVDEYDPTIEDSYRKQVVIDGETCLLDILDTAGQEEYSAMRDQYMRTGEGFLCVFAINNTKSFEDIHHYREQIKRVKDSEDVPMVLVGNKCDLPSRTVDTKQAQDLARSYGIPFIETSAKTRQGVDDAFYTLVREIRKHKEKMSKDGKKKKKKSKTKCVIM
Chain of KRAS G12V (P01116 1-188 isoform P01116-2 G12V): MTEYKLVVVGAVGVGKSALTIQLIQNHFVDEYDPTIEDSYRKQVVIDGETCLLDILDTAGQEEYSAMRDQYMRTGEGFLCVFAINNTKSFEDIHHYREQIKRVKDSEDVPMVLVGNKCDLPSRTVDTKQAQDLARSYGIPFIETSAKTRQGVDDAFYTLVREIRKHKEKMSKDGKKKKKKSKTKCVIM

Take `CO[C@H]1C[C@H]2C[C@@H]1[C@H](c1cc3c(C)nc4c(F)c(-c5cccc(Cl)c5Cl)c(CCC#N)cc4c3n1[C@H]1[C@H]3CN[C@@H]1C3)N2C(=O)C1CC1` [Example 15, 3-(1-((1R,4R,5S)-2-azabicyclo[2.1.1]hexan-5-yl)-2-((1R,3R,4R,5S)-2-(cyclopropanecarbonyl)-5-methoxy-2-azabicyclo[2.2.1]heptan-3-yl)-7-(2,3-dichlorophenyl)-6-fluoro-4-methyl-1H-pyrrolo[3,2-c]quinolin-8-yl)propanenitrile]: the IC50 at KRAS G12D and on KRAS G12V was no more than 100 nM throughout.

Turning to `Cc1nc2c(F)c(-c3cccc(Cl)c3Cl)c(CCC#N)cc2c2c1cc([C@H]1[C@H]3C[C@H](C[C@@H]3O)N1C(=O)C1CC1)n2C1[C@H]2CN[C@@H]1C2` (stereo partly drawn) [Example 16, 3-(1-((1R,4R)-2-azabicyclo[2.1.1]hexan-5-yl)-2-((1R,3R,4R,5S)-2-(cyclopropanecarbonyl)-5-hydroxy-2-azabicyclo[2.2.1]heptan-3-yl)-7-(2,3-dichlorophenyl)-6-fluoro-4-methyl-1H-pyrrolo[3,2-c]quinolin-8-yl)propanenitrile], the IC50 at KRAS G12D and on KRAS G12V was no more than 100 nM throughout.

Regarding `Cc1nc2c(F)c(-c3cccc(Cl)c3Cl)c(CCC#N)cc2c2c1cc([C@H]1[C@H]3C[C@H](C[C@H]3F)N1C(=O)C1CC1)n2C1[C@H]2CN[C@@H]1C2` (stereo partly drawn) [Example 17, 3-(1-((1R,4R)-2-azabicyclo[2.1.1]hexan-5-yl)-2-((1R,3R,4R,5R)-2-(cyclopropanecarbonyl)-5-fluoro-2-azabicyclo[2.2.1]heptan-3-yl)-7-(2,3-dichlorophenyl)-6-fluoro-4-methyl-1H-pyrrolo[3,2-c]quinolin-8-yl)propanenitrile], the IC50 on KRAS G12D and at KRAS G12V was no more than 100 nM each time.

With `Cc1nc2c(F)c(-c3cccc(Cl)c3Cl)c(CCC#N)cc2c2c1cc([C@H]1[C@H]3C[C@H](C[C@H]3C)N1C(=O)C1CC1)n2C1[C@H]2CN[C@@H]1C2` (stereo partly drawn) [Example 18, 3-(1-((1R,4R)-2-azabicyclo[2.1.1]hexan-5-yl)-2-((1S,3R,4S,5R)-2-(cyclopropanecarbonyl)-5-methyl-2-azabicyclo[2.2.1]heptan-3-yl)-7-(2,3-dichlorophenyl)-6-fluoro-4-methyl-1H-pyrrolo[3,2-c]quinolin-8-yl)propanenitrile], the IC50 on KRAS G12D and at KRAS G12V was no more than 100 nM throughout.

For `Cc1nc2c(F)c(-c3cccc(Cl)c3Cl)c(CCC#N)cc2c2c1cc([C@H]1[C@H]3C[C@H](C[C@@H]3C)N1C(=O)C1CC1)n2C1[C@H]2CN[C@@H]1C2` (stereo partly drawn) [Example 19, 3-(1-((1R,4R)-2-azabicyclo[2.1.1]hexan-5-yl)-2-((1S,3R,4S,5S)-2-(cyclopropanecarbonyl)-5-methyl-2-azabicyclo[2.2.1]heptan-3-yl)-7-(2,3-dichlorophenyl)-6-fluoro-4-methyl-1H-pyrrolo[3,2-c]quinolin-8-yl)propanenitrile], the concentration for half-maximal inhibition (IC50) on KRAS G12D and on KRAS G12V was no more than 100 nM in each case.

Consider `Cc1nc2c(F)c(-c3cccc(Cl)c3Cl)c(CCC#N)cc2c2c1cc([C@H]1[C@H]3C[C@H](C[C@@H]3F)N1C(=O)C1CC1)n2C1[C@H]2CN[C@@H]1C2` (stereo partly drawn) [Example 20, 3-(1-((1R,4R)-2-azabicyclo[2.1.1]hexan-5-yl)-2-((1R,3R,4R,5S)-2-(cyclopropanecarbonyl)-5-fluoro-2-azabicyclo[2.2.1]heptan-3-yl)-7-(2,3-dichlorophenyl)-6-fluoro-4-methyl-1H-pyrrolo[3,2-c]quinolin-8-yl)propanenitrile], for which the IC50 on KRAS G12D and at KRAS G12V was no more than 100 nM in each case.
